Literature values as cited in PMC6777988 (ACS infectious diseases, 2018).

How the values were obtained:
C. parvum = settings: combined with partial CpCDPK1 siRNA knockdown
Cryptosporidium = settings: immunocompromised patients and malnourished children

SMILES	effect on proliferation of C. parvum parasites (C. parvum)	efficacy in patients (Cryptosporidium)
CCOc1ccc2cc(-c3nn(CC4CCN(C)CC4)c4ncnc(N)c34)ccc2c1 [Compound 1294]	further inhibitory effects	
CCOc1ccc2cc(-c3nn(C(C)(C)C)c(N)c3C(N)=O)cnc2c1 [Compound 1517]	further inhibitory effects	
CC(=O)Oc1ccccc1C(=O)Nc1ncc([N+](=O)[O-])s1 [Nitazoxanide, nitazoxanide]		minimal efficacy
